Experiments:
Type in all cases: cell-based, human
NSCs = assay: Alamar blue viability EC50 in neural stem cells
Description: Human Neural Stem Cells (H9 hESC-Derived) were purchased from Invitrogen and grown in DMEM/F12 containing penicillin/streptomycin/amphotericin B (1% vol/vol) supplemented with N2 (2% vol/vol; Invitrogen), EGF (20 ng/ml; Invitrogen), and FGF-2 (20 ng/ml; Invitrogen). DIPG cell lines (all with the H3K27M mutation) SU-DIPG-IV (DIPG-IV), SU-DIPG-13p (DIPG-13p), and HSJD-DIPG-007 (DIPG-007) were grown and passaged in DIPG medium as previously reported (Grasso et al., Nature medicine 2015; 21:555-9; Nagaraja et al., Cancer cell 2017; 31:635-52 e6; Vinci et al., Nature medicine 2018). SF8628 and immortalized NHAs were grown in DMEM (Invitrogen) supplemented with 10% FBS (Invitrogen). All cell lines were confirmed by STR profiling and tested mycoplasma negative by PCR. All tumor-derived cell lines used are described in Table 2.
Direct cell counts were performed using the Countess II FL Automated Cell Counter (ThermoFisher Scientific). Alamar blue viability (ThermoFisher Scientific) and the 5-bromo-2′-deoxyuridine (BrdU) incorporated cell proliferation assay (Cell Signaling Technology Cat #6813) were performed using the manufacturer's standard protocol. EC50 curve analysis was performed using raw fluorescent Alamar blue values that were inputted into PRISM 7.0. Drug concentrations were log 10 transformed and values normalized to percent viability with respect to vehicle treated cells. […]

[1] = system: DIPG-007, DIPG-IV, SF8628 and DIPG-13p cells; assay: Annexin-PI flow cytometry apoptosis assay; details: for populations in early apoptosis, late apoptosis and necrosis / viable cells (Annexin negative, PI negative): 48 h, vs DMSO vehicle
Description: Apoptosis was quantified using the Pacific Blue Annexin V Apoptosis Detection Kit with propidium iodide (BioLegend, San Diego, Calif. Cat #640926). Analysis was performed at the Flow Cytometry Core, Rangos Research Center, UPMC Children's Hospital of Pittsburgh.

DIPG-IV cells = assay: Cleaved Caspase 3/7 assay in DIPG-IV cells expressing ERK5 constructs; details: 500 nM; DIPG-IV cells expressing ERK5-HA or ERK5-HA T733E vs empty vector

Compound: CCOc1cc(C(=O)N2CCC(N3CCN(C)CC3)CC2)ccc1Nc1ncc2c(n1)N(C1CCCC1)c1ccccc1C(=O)N2C [ERK5-IN-1, 11-cyclopentyl-2-[[2-ethoxy-4-[[4-(4-methyl-1-piperazinyl)-1-piperidinyl]carbonyl]phenyl]amino]-5,11-dihydro-5-methyl-6H-pyrimido[4,5b][1,4]benzodiazepin-6-one]
- ERK5-IN-1 EC50 values (NSCs; NSCs and NSCs over expressing wildtype H3, compared to H3K27M DIPG and hemispheric pGBM lines): higher
- ERK5-IN-1 EC50 values (NSCs; NSCs expressing H3K27M): significantly lower
- populations in early apoptosis, late apoptosis and necrosis ([1]; DIPG-007 and DIPG-IV cells): increased
- viable cells (Annexin negative, PI negative) ([1]; DIPG-007 and DIPG-IV cells): decreased
- populations in early apoptosis, late apoptosis and necrosis ([1]; SF8628 and DIPG-13p cells): increased
- viable cells (Annexin negative, PI negative) ([1]; SF8628 and DIPG-13p cells): decreased
- rates of apoptosis ([1]; DIPG-007 and DIPG-IV cells, compared to controls): significantly higher rates of apoptosis
- apoptosis ([1]; DIPG-13p and SF8628 cells): induction of apoptosis
- cleaved Caspase 3/7 levels (DIPG-IV cells): reduced cleaved Caspase 3/7 levels

Reference: patent US20220031710A1, “USE OF ERK5 INHIBITORS FOR TREATING GLIOMAS IN PEDIATRIC SUBJECTS” (UNIVERSITY OF PITTSBURGH - OF THE COMMONWEALTH SYSTEM OF …, priority 2019, published 2022)
